Here are results for one sequence from paper PMC9137037 (Frontiers in Oncology, 2022).

Where no end group is shown, it is not given here.

The subject of series [1] is beagle dogs. Kind of series: Safety observations in immunized beagle dogs. Format: in vivo, dog. As for the experimental part: In brief, the beagle dogs were purchased from Covance Research Products (Cumberland, VA, USA) and were housed in the Ohio State University Veterinarian Facility Institutional Animal Care Facility. The dogs were housed at 19°C−24°C room temperature with approximately 70% humidity, and 12 h light and 12 h dark–light cycle. The dogs’ body weights were at least 7.5 kg when they received the first immunization. […] The dogs received a total of 4 doses, immunization was done at the rear thigh with two sites of injections, the bleed was collected as indicated time points to monitor the antibody titers, and the body weight of each dog was monitored closely (see Figures 3B, C for detail).
This study was designed to monitor the kinetics of how quickly the antibody levels to MVF-PD-1(92-110) diminished after the dosing was stopped. The recall of an antibody response was also tested after re-challenge. Four beagle dogs were used in this study of MVF-PD-1(92-110) peptide cancer vaccine. Dogs #1, #2, and #3 were treated with MVF-PD-1(92-110) emulsified with nor-MDP and ISA 720 using different doses ( Figure 3A ). Dog#1 was treated with 1.0 mg low-dose peptide, dog#2 was treated with 1.5 mg medium-dose peptide, and dog #3 was treated with 3.0 mg high-dose peptide. The negative control dog #10 was only treated with the MVF peptide emulsified with nor-MDP and Montanide ISA720. Dogs were immunized 4 times designated as 1Y, 2Y, 3Y, and 4Y at Day 0, Day 35, Day 56, and 6 months after primary immunization, respectively. Blood was collected every 2 weeks, except for the first collection, which was 3 weeks after the primary immunization and 1 week after 2Y and 3Y immunization ( Figure 3B ). The sera were used to monitor the antibody titers. We monitored the beagle dogs’ body weight closely during the immunization period ( Figure 3C ).
• a) Beagle dogs were immunized with MVF-PD-1 (92-110) (3 dogs with 1 dog each at the doses of 1, 1.5, and 3 mg/dose). • b) All dogs administered with MVF-PD-1 (92-110) had high polyclonal anti-MVF-PD-1 (92-110) antibody titers. […] These injection site lesions were mostly attributed to the high volume of Montanide ISA 720 VG used in this study.

Series [2] concerns cynomolgus monkeys. In words: ELISA antibody titers, monkey study No.00213515. The class given is in vivo, Macaca fascicularis. The settings on record: monkey 1st set, 0.5, 2, 5 mg/dose, 2-week interval, ISA 720. The method, then:
The non-human primate studies were carried out by the Charles River Laboratories (Ashland, OH USA). All the cynomolgus monkeys (Macaca fascicularis of Chinese origin) were obtained from Charles River Laboratories (Houston, TX, USA). In brief, the animals were approximately 2–4 years old and at the body weight between 2.2 and 3.1 kg at the initial dosing. The animals were kept at the temperature between 19°C and 24°C, humidity 30%–70%, and with 12 h light and 12 h dark light cycle. The Good manufacturing practice (GMP)-manufactured vaccine was used in the non-human primate study. […] Similar to mouse and dog dosing preparation, after the emulsion was prepared, a drop test was performed on each time of dosing to confirm that the emulsion had been prepared properly. […] All the animals’ body weights were monitored weekly after receiving. […]
Enzyme-linked immunosorbent assay (ELISA) was performed per our lab standard procedure. […] After washing, the antibody was detected using 50 μl of 0.15% H2O2 in 24 mM of citric acid and 5 mM of the sodium phosphate buffer (pH5.2) with 0.5 mg/ml 2, […] (3-ethylbenzthiazole- 6-sulfonic acid, ABTS; Sigma, St. Louis, MO, USA) as the chromophore. […] Absorbance was read at 415 nm using an ELISA microplate reader (SPECTRAmax PLUS384; Molecular Devices, San Jose, CA, USA). The highest dilution at the cutoff absorbance 0.2 were determined as the antibody titer. […]
For orientation: An ELISA detects its analyte on a solid surface through an enzyme-linked reagent.

For series [3], the system named is cynomolgus monkeys. Kind of series: GLP repeat-dose toxicology, first monkey study No.00213515. The class given is in vivo, Macaca fascicularis. As for the experimental part:
The non-human primate studies were carried out by the Charles River Laboratories (Ashland, OH USA). All the cynomolgus monkeys (Macaca fascicularis of Chinese origin) were obtained from Charles River Laboratories (Houston, TX, USA). In brief, the animals were approximately 2–4 years old and at the body weight between 2.2 and 3.1 kg at the initial dosing. The animals were kept at the temperature between 19°C and 24°C, humidity 30%–70%, and with 12 h light and 12 h dark light cycle. The Good manufacturing practice (GMP)-manufactured vaccine was used in the non-human primate study. […] Similar to mouse and dog dosing preparation, after the emulsion was prepared, a drop test was performed on each time of dosing to confirm that the emulsion had been prepared properly. […] The dose volume was split approximately equally across two different sites; 0.5 ml of the dose was intramuscularly (IM) injected into the right posterior lateral thigh, the left dosing was injected into the left site. All the animals’ body weights were monitored weekly after receiving. After each immunization, the animal body temperature was tested 6 and 24 h post each immunization. […] The animal bleed were collected before each time of immunization to monitor the antibody titers. There were two sets of non-human primate studies conducted. The first set of monkey study No.00213515 had 24 monkeys, 12 males, and 12 females divided into 4 groups: vehicle control, low dose 0.5 mg, medium dose 2 mg, and high dose 5 mg. There were 16 monkeys (8 males and 8 females) in the second set of monkey study No. 00213519. The monkeys in the four groups were vaccinated as follows: vehicle control, low dose 25 μg, medium dose 100 μg, and high dose 250 μg.
In the non-human primate study (#00213515), 24 non-human primates, cynomolgus monkeys, were used. The monkeys were immunized four times (1Y, 2Y, 3Y, and 4Y at days 1, 15, 29, and 43, respectively). Sera were collected at day 1 (pre), day 43, and day 59 ( Figure 4A ). There were four groups and 6 monkeys in each group. Group 1 was the control group, which was treated with only ISA 720 and ddwater. Groups 2, 3, and 4 were peptide PD-1Vaxx treatment groups and were treated with low-dose 0.5 mg/dose, medium-dose […], or high-dose […] peptide vaccine, respectively ( Figure 4B ), emulsified in ISA 720.
These observations were first noted beginning after the second or third dose and were more frequent in female monkeys compared to male monkeys. • b) After the recovery period, all APi2568-related clinical observations had either recovered or were in the process of recovering, with the exception of swollen hind limbs.

For the sequence “KLLSLIKGVIVHRLEGVEGPSLGAISLAPKAQIKESLRAEL [MVF-PD-1(92-110)]”, the “dogs with adverse local reaction (lesions at or near the IM injection site)” value in series [1] (1, 1.5 and 3 mg/dose, 1 dog each, lesions resolved within a few weeks after dosing ceased, mostly attributed to high volume of Montanide ISA 720 VG) was “Two out of three”. The “body weight by the end of the experiment compared with the initial weight” value in series [1] (all dogs) is given as “gained some weight”. The “induction of autoimmune responses” value in series [1] (beagle dogs) and in series [3] (cynomolgus monkeys) was “has not been observed” each time. Besides, the “safety (summary)” value in series [1] (dog) and in series [3] (monkey 1st set) was “safe” each time. Also, the “immunogenicity (summary)” value in series [2] is reported as “high immunogenicity”. Besides, the “no-observed-adverse-effect level (NOAEL)” value in series [3] (0.5, 2, 5 mg/dose IM as PD1-Vaxx, male and female cynomolgus monkeys) is listed as “could not be determined”. The “clinical findings at or near the IM site of dose administration” value in series [3] (0.5, 2, and 5 mg/dose groups, first noted after second or third dose, more frequent in females) is reported as “adverse swelling, ulceration, and/or abscess formation”.
